Data from ChEMBL document CHEMBL5506040, “Design of FK866-Based Degraders for Blocking the Nonenzymatic Functions of Nicotinamide Phosphoribosyltransferase” (J Med Chem, 2024).
Active and inactive are the calls of the source. The rule behind the calls is not given here.

Columns and labels:
[1] = target: T1, Protein cereblon/Nicotinamide phosphoribosyltransferase (Homo sapiens) (UniProt P43490+Q96SW2); experiment: PROTAC activity at CRBN/NAMPT in human SK-OV-3 cells assessed as induction of intracellular NAMPT degradation at 0.5 to 5 uM incubated for 24 hrs by Western blot analysis; type: cell-based; conditions: dose 0.5-5 µM
T1 sequence (P43490 whole entry, looked up): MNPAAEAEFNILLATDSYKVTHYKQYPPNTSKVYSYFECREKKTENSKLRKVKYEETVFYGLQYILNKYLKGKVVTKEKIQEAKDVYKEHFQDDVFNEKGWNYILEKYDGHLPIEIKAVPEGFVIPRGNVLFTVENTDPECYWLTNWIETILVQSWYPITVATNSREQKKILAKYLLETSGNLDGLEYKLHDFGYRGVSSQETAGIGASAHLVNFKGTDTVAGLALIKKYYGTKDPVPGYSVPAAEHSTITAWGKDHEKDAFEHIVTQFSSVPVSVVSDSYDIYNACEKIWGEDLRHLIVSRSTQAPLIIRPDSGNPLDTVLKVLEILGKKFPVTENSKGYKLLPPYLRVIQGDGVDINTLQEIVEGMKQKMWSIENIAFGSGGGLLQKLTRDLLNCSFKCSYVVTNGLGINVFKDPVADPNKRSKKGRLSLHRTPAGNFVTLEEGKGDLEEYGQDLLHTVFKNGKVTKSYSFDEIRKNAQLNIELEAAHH
T1 sequence (Q96SW2 whole entry, looked up): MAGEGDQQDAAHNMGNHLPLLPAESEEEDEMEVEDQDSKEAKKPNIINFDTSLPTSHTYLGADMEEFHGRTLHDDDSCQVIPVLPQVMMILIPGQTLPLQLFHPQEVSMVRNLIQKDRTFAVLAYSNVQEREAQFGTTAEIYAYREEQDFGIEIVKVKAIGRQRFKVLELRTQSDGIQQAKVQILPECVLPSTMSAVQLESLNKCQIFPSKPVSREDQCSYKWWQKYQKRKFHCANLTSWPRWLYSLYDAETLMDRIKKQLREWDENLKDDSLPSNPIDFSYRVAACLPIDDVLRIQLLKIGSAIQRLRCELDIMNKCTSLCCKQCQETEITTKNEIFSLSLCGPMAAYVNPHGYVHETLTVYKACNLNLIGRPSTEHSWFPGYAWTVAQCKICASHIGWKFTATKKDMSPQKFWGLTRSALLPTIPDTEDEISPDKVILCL

SK-OV-3 = experiment: cells; conditions: Homo sapiens, SK-OV-3, 72 h
Description: Cytotoxicity against human SK-OV-3 cells assessed as inhibition of cell growth incubated for 72 hrs by MTT assay

MIA PaCa-2 = experiment: cells; conditions: Homo sapiens, MIA PaCa-2, 72 h
Description: Cytotoxicity against human MIA PaCa-2 cells assessed as inhibition of cell growth incubated for 72 hrs by MTT assay

[2] = target: T1, Protein cereblon/Nicotinamide phosphoribosyltransferase (Homo sapiens); experiment: PROTAC activity at CRBN/NAMPT in human SK-OV-3 cells assessed as induction of intracellular NAMPT degradation at 0.5 uM incubated for 24 hrs by Western blot analysis relative to control; type: cell-based
[3] = target: T1, Protein cereblon/Nicotinamide phosphoribosyltransferase (Homo sapiens); experiment: PROTAC activity at CRBN/NAMPT in human SK-OV-3 cells assessed as induction of intracellular NAMPT degradation at 5 uM incubated for 24 hrs by Western blot analysis relative to control; type: cell-based

| Activity [1] | IC50 (SK-OV-3) [nM] | IC50 (MIA PaCa-2) [nM] | Activity [2] [%] | Activity [3] [%] | Compound |
| --- | --- | --- | --- | --- | --- |
| inactive | 4 | 4 |  |  | O=C(/C=C/c1cccnc1)NCCCCC1CCN(C(=O)c2ccc(C(=O)N3CCC4(CC3)CN(c3cccc5c3C(=O)N(C3CCC(=O)NC3=O)C5=O)C4)cc2)CC1 (configuration not stated) |
| inactive | 4 | 4 |  |  | O=C(/C=C/c1cccnc1)NCCCCC1CCN(C(=O)c2ccc(C(=O)N3CC4(CCN(c5cccc6c5C(=O)N(C5CCC(=O)NC5=O)C6=O)CC4)C3)cc2)CC1 (configuration not stated) |
|  | 4 | 4 | 25 | 30 | O=C(/C=C/c1cccnc1)NCCCCC1CCN(C(=O)c2ccc(C(=O)NCc3cn(CCOCCNc4cccc5c4C(=O)N(C4CCC(=O)NC4=O)C5=O)nn3)cc2)CC1 (configuration not stated) |
|  | 4 | 4 | 0 | 0 | O=C(/C=C/c1cccnc1)NCCCCC1CCN(C(=O)c2ccc(C(=O)NCCCCCc3cccc4c3CN(C3CCC(=O)NC3=O)C4=O)cc2)CC1 (configuration not stated) |
| inactive | 4 | 4 |  |  | O=C(/C=C/c1cccnc1)NCCCCC1CCN(C(=O)c2ccc(C(=O)N3CCC4(CC3)CC(C(=O)N3CCN(c5cccc6c5C(=O)N(C5CCC(=O)NC5=O)C6=O)CC3)C4)cc2)CC1 (configuration not stated) |
|  | 4 | 4 | 0 | 22 | O=C(/C=C/c1cccnc1)NCCCCC1CCN(C(=O)c2ccc(C(=O)NCCCCNc3cccc4c3C(=O)N(C3CCC(=O)NC3=O)C4=O)cc2)CC1 (configuration not stated) |
| inactive | 4 | 4 |  |  | O=C(/C=C/c1cccnc1)NCCCCC1CCN(C(=O)c2ccc(C(=O)N3CCC(C(=O)N4CCN(c5cccc6c5C(=O)N(C5CCC(=O)NC5=O)C6=O)CC4)CC3)cc2)CC1 (configuration not stated) |
|  | 4 | 4 | 0 | 0 | O=C(/C=C/c1cccnc1)NCCCCC1CCN(C(=O)c2ccc(NC(=O)COCCOCCNc3cccc4c3C(=O)N(C3CCC(=O)NC3=O)C4=O)cc2)CC1 (configuration not stated) |
|  | 4 | 4 | 0 | 0 | O=C(/C=C/c1cccnc1)NCCCCC1CCN(C(=O)c2ccc(NC(=O)CCOCCOCCOCCOCCNc3cccc4c3C(=O)N(C3CCC(=O)NC3=O)C4=O)cc2)CC1 (configuration not stated) |
|  | 4 | 4 | 0 | 11 | O=C(/C=C/c1cccnc1)NCCCCC1CCN(C(=O)c2ccc(C(=O)NCCNc3cccc4c3C(=O)N(C3CCC(=O)NC3=O)C4=O)cc2)CC1 (configuration not stated) |
|  | 4 | 4 | 0 | 0 | O=C(/C=C/c1cccnc1)NCCCCC1CCN(C(=O)c2ccc(NC(=O)COCCOCCOCCOCCNc3cccc4c3C(=O)N(C3CCC(=O)NC3=O)C4=O)cc2)CC1 (configuration not stated) |
| inactive | 4 | 4 |  |  | O=C(/C=C/c1cccnc1)NCCCCC1CCN(C(=O)c2ccc(C(=O)N3CCC(CC(=O)Nc4cccc5c4C(=O)N(C4CCC(=O)NC4=O)C5=O)CC3)cc2)CC1 (configuration not stated) |
|  | 4 | 4 | 0 | 0 | O=C(/C=C/c1cccnc1)NCCCCC1CCN(C(=O)c2ccc(C(=O)NCc3cn(CCOCCOCCNc4cccc5c4C(=O)N(C4CCC(=O)NC4=O)C5=O)nn3)cc2)CC1 (configuration not stated) |
| inactive | 4 | 4 |  |  | O=C(/C=C/c1cccnc1)NCCCCC1CCN(C(=O)c2ccc(NC(=O)c3ccc(CN4CCN(c5cccc6c5C(=O)N(C5CCC(=O)NC5=O)C6=O)CC4)cc3)cc2)CC1 (configuration not stated) |
| inactive | 4 | 4 |  |  | O=C(/C=C/c1cccnc1)NCCCCC1CCN(C(=O)c2ccc(NC(=O)CN3CCN(c4cccc5c4C(=O)N(C4CCC(=O)NC4=O)C5=O)CC3)cc2)CC1 (configuration not stated) |
| inactive | 4 | 4 |  |  | O=C(/C=C/c1cccnc1)NCCCCC1CCN(C(=O)c2ccc(C(=O)N3CCC4(C3)CN(c3cccc5c3C(=O)N(C3CCC(=O)NC3=O)C5=O)C4)cc2)CC1 (configuration not stated) |
|  | 4 | 4 | 0 | 0 | O=C(/C=C/c1cccnc1)NCCCCC1CCN(C(=O)c2ccc(C(=O)NCCCCCCNc3cccc4c3C(=O)N(C3CCC(=O)NC3=O)C4=O)cc2)CC1 (configuration not stated) |
|  | 4 | 4 | 40 | 27 | O=C(/C=C/c1cccnc1)NCCCCC1CCN(C(=O)c2ccc(C(=O)NCc3cn(CCOCCOCCOCCOCCNc4cccc5c4C(=O)N(C4CCC(=O)NC4=O)C5=O)nn3)cc2)CC1 (configuration not stated) |
| inactive | 4 | 4 |  |  | O=C(/C=C/c1cccnc1)NCCCCC1CCN(C(=O)c2ccc(C(=O)N3CCC(C(=O)Nc4cccc5c4C(=O)N(C4CCC(=O)NC4=O)C5=O)CC3)cc2)CC1 (configuration not stated) |
|  | 4 | 4 | 51 | 52 | O=C(/C=C/c1cccnc1)NCCCCC1CCN(C(=O)c2ccc(C(=O)NCc3cn(CCOCCOCCOCCOCCOCCNc4cccc5c4C(=O)N(C4CCC(=O)NC4=O)C5=O)nn3)cc2)CC1 (configuration not stated) |
|  | 4 | 4 | 29 | 0 | O=C(/C=C/c1cccnc1)NCCCCC1CCN(C(=O)c2ccc(C(=O)NCCCNc3cccc4c3C(=O)N(C3CCC(=O)NC3=O)C4=O)cc2)CC1 (configuration not stated) |
|  | 4 | 4 | 0 | 0 | O=C(/C=C/c1cccnc1)NCCCCC1CCN(C(=O)c2ccc(C(=O)NCCCCCNc3cccc4c3C(=O)N(C3CCC(=O)NC3=O)C4=O)cc2)CC1 (configuration not stated) |
|  | 4 | 4 | 34 | 20 | O=C(/C=C/c1cccnc1)NCCCCC1CCN(C(=O)c2ccc(C(=O)NCc3cn(CCOCCOCCOCCNc4cccc5c4C(=O)N(C4CCC(=O)NC4=O)C5=O)nn3)cc2)CC1 (configuration not stated) |
| inactive | 4 | 4 |  |  | O=C(/C=C/c1cccnc1)NCCCCC1CCN(C(=O)c2ccc(NC(=O)CCCN3CCN(c4cccc5c4C(=O)N(C4CCC(=O)NC4=O)C5=O)CC3)cc2)CC1 (configuration not stated) |
| inactive | 4 | 4 |  |  | O=C(/C=C/c1cccnc1)NCCCCC1CCN(C(=O)c2ccc(C(=O)N3CCC4(CCN(c5cccc6c5C(=O)N(C5CCC(=O)NC5=O)C6=O)C4)C3)cc2)CC1 (configuration not stated) |
| inactive | 4 | 4 |  |  | O=C(/C=C/c1cccnc1)NCCCCC1CCN(C(=O)c2ccc(NC(=O)CCCCN3CCN(c4cccc5c4C(=O)N(C4CCC(=O)NC4=O)C5=O)CC3)cc2)CC1 (configuration not stated) |
|  | 4 | 4 | 0 | 0 | O=C(/C=C/c1cccnc1)NCCCCC1CCN(C(=O)c2ccc(NC(=O)COCCOCCOCCNc3cccc4c3C(=O)N(C3CCC(=O)NC3=O)C4=O)cc2)CC1 (configuration not stated) |
| inactive | 4 | 4 |  |  | O=C(/C=C/c1cccnc1)NCCCCC1CCN(C(=O)c2ccc(C(=O)N3CCN(Cc4ccc(CNc5cccc6c5C(=O)N(C5CCC(=O)NC5=O)C6=O)cc4)CC3)cc2)CC1 (configuration not stated) |
| inactive | 4 | 4 |  |  | O=C(/C=C/c1cccnc1)NCCCCC1CCN(C(=O)c2ccc(C(=O)N3CCN(c4cccc5c4C(=O)N(C4CCC(=O)NC4=O)C5=O)CC3)cc2)CC1 (configuration not stated) |
